Drawing on US11033539B2, “Compounds of formulas (VII), (VIII), (IX), (XI), (XII), (XIII), and (XIV) as muscarinic receptor 4(M4) antagonists for treating neurological diseases” (Neurocrine Biosciences, Inc., priority 2015, dated 2021), this text covers Ki for 17 compounds.

Structures are written as SMILES.

The term Ki denotes the equilibrium dissociation constant of an inhibitor or competing ligand from its target.

One assay concerns the target human M1 receptor (Homo sapiens (Human), UniProt P11229). Briefly: Radioligand (tritiated N-methylscopolamine) binding assay, M1. As to conditions: CHO cell membranes expressing human M1; 1.5 nM tritiated N-methylscopolamine; 90 min, 37° C.; read-out: Ki against M1 receptor (Table 21, M1). An outline of the steps:
(§1)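 Membranes from CHO cells expressing the receptor were incubated with 1.5 nM radioligand and twelve compound concentrations (10 μM to […]) for 90 min at 37 °C in 50 mM HEPES, 100 mM NaCl, 5 mM MgCl2, 1 mM EDTA, pH 7.4. Bound radioligand was collected by filtration and counted, and Ki was derived from inhibition.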

Another assay addresses human M2 receptor (Homo sapiens (Human), UniProt P08172). The assay can be described thus: Radioligand (tritiated N-methylscopolamine) binding assay, M2. The following applies: CHO cell membranes expressing human M2; 1.5 nM tritiated N-methylscopolamine; 90 min, 37° C.; read-out: Ki against M2 receptor (Table 21, M2). Summed up: as §1
In a further assay the target is human M3 receptor (Homo sapiens (Human), UniProt P20309). Briefly: Radioligand (tritiated N-methylscopolamine) binding assay, M3. The following applies: CHO cell membranes expressing human M3; 1.5 nM tritiated N-methylscopolamine; 90 min, 37° C.; read-out: Ki against M3 receptor (Table 21, M3). An outline of the steps: as §1
A further assay deals with human M4 receptor (Homo sapiens (Human), UniProt P08173). Briefly: Radioligand (tritiated N-methylscopolamine) binding assay, M4. The following applies: Ki against the M4 receptor; membranes from CHO cells expressing human M4; tritiated N-methylscopolamine 1.5 nM; read-out: Ki. An outline of the steps:
as §1

A further assay deals with human M5 receptor (Homo sapiens (Human), UniProt P08912). The assay can be described thus: Radioligand (tritiated N-methylscopolamine) binding assay, M5. The following applies: CHO cell membranes expressing human M5; 1.5 nM tritiated N-methylscopolamine; 90 min, 37° C.; read-out: Ki against M5 receptor (Table 21, M5). An outline of the steps: as §1
Chain of human M5 receptor (P08912 whole entry): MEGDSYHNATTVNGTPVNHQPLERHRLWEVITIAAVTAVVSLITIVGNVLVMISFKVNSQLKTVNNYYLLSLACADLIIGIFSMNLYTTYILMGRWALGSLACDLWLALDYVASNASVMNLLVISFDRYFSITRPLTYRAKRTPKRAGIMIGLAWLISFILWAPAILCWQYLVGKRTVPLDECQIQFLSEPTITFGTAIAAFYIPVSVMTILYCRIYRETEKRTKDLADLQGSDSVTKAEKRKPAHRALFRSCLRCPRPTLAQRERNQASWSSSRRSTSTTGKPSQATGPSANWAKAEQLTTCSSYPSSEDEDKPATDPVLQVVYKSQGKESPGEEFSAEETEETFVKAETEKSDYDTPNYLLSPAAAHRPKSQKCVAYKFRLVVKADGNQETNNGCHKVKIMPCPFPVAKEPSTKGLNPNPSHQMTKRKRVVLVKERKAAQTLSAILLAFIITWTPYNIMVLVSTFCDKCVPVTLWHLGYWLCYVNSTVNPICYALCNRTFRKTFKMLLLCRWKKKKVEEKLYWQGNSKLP

Chain of human M4 receptor (P08173 whole entry): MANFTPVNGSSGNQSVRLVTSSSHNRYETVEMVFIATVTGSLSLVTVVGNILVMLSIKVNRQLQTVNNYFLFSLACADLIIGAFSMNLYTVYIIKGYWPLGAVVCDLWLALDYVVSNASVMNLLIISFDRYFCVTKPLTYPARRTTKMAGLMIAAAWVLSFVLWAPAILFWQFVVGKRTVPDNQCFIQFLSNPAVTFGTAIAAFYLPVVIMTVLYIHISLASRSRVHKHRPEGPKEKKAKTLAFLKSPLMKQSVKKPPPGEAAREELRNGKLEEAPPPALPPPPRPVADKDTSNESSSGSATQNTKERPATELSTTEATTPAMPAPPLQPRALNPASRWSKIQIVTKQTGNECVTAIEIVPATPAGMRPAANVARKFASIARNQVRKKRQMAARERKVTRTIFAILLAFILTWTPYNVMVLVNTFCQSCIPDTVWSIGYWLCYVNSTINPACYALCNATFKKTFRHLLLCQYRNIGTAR
Chain of human M2 receptor (P08172 whole entry): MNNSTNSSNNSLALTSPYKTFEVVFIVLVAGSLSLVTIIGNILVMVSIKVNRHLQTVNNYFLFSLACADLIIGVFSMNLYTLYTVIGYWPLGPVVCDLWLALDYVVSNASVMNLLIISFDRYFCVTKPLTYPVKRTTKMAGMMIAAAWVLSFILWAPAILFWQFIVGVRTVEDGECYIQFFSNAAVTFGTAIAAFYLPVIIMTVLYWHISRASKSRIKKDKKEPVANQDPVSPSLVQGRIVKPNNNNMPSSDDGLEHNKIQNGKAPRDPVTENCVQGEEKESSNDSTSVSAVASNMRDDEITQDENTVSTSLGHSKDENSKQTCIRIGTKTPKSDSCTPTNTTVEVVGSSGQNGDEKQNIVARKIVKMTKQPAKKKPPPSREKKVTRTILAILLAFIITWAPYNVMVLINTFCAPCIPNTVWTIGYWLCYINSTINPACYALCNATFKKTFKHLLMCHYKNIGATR
Chain of human M3 receptor (P20309 whole entry): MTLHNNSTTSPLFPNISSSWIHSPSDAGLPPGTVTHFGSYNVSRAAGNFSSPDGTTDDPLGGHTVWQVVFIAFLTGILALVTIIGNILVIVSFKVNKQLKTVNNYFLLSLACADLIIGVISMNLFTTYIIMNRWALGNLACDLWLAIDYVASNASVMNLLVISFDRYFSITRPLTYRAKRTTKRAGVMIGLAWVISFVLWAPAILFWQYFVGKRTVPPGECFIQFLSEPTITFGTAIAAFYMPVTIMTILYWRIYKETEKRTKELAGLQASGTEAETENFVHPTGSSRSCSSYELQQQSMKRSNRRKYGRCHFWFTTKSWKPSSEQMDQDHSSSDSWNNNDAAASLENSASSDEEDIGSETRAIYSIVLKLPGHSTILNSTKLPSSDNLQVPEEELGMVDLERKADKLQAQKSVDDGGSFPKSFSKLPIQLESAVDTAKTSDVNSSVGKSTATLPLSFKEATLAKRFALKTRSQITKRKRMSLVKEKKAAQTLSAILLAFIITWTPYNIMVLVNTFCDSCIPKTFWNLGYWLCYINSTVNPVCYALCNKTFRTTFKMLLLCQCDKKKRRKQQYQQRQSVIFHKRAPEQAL
Chain of human M1 receptor (P11229 whole entry): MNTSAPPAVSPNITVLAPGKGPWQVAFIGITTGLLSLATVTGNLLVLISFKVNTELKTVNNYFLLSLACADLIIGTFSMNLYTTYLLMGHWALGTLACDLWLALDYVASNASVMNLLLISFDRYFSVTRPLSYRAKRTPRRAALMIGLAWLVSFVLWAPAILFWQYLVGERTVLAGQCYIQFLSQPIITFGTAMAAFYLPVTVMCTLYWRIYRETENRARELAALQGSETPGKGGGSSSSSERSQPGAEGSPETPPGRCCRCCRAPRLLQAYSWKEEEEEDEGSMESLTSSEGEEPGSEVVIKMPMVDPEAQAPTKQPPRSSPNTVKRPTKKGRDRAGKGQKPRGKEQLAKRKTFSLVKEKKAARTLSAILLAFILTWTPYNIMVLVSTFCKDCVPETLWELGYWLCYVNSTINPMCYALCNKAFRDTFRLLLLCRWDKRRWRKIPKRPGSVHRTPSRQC

On to `O=C(NCCC1CCN(Cc2ccccc2)CC1CO)C1CCN(c2ccc(OC(F)(F)F)cc2)CC1` (stereo not shown) [9-62, N-{2-[1-benzyl-3-(hydroxymethyl)piperidin-4-yl]ethyl}-1-[4-(trifluoromethoxy)phenyl]piperidine-4-carboxamide], for which the inhibition constant Ki on human M1 receptor is 0.1 to 1 µM; at human M2 receptor it was 0.1 to 1 µM; on human M3 receptor it was over 1 µM; on human M4 receptor, under 0.01 µM; at human M5 receptor, over 1 µM.

As for `O=C(NCCC1CCN(Cc2ccccc2)CC1)C1CCN(c2ncc(C(F)(F)F)cc2Cl)CC1` [9-63, N-[2-(1-benzylpiperidin-4-yl)ethyl]-1-[3-chloro-5(trifluoromethyl)pyridin-2-yl]piperidine-4-carboxamide], the inhibition constant (Ki) is 0.01 to 0.1 µM on human M1 receptor; under 0.01 µM at human M2 receptor; 0.01 to 0.1 µM on human M3 receptor; under 0.01 µM on human M4 receptor; 0.1 to 1 µM on human M5 receptor.

For the compound `O=C(NCCC1(CO)CCN(Cc2ccccc2)CC1)C1CCN(c2ccc(OC(F)(F)F)c(F)c2)CC1` [9-64, N-{2-[1-benzyl-4-(hydroxymethyl)piperidin-4-yl]ethyl}-1-[3-fluoro-4-(trifluoromethoxy)phenyl]piperidine-4-carboxamide], the inhibitory constant (Ki) on human M1 receptor was 0.1 to 1 µM; at human M2 receptor, 0.1 to 1 µM; on human M3 receptor, over 1 µM; at human M4 receptor it was under 0.01 µM; on human M5 receptor it was over 1 µM.

Consider `N#Cc1cc(N2CCC(C(=O)NCCC3CCN(Cc4ccccc4)CC3)CC2)ccc1F` [9-73, N-[2-(1-benzylpiperidin-4-yl)ethyl]-1-(3-cyano-4-fluorophenyl)piperidine-4-carboxamide], for which the Ki at human M1 receptor was over 1 µM; at human M2 receptor it was 0.1 to 1 µM; at human M3 receptor, over 1 µM; at human M4 receptor, under 0.01 µM; at human M5 receptor, over 1 µM.

In the case of `O=C(NCCC1CCN(Cc2ccccc2)CC1)C1CCN(c2ccc3c(c2)OC(F)(F)O3)CC1` [10-5, N-[2-(1-benzylpiperidin-4-yl)ethyl]-1-(2,2-difluoro-2H-1,3-benzodioxol-5-yl)piperidine-4-carboxamide], the inhibition constant (Ki) at human M1 receptor was 0.1 to 1 µM; at human M2 receptor, 0.01 to 0.1 µM; on human M3 receptor it was over 1 µM; at human M4 receptor, under 0.01 µM; at human M5 receptor, over 1 µM.

Turning to `CC1CN(c2ccc(OC(F)(F)F)cc2)CCC1C(=O)NCCC1CCN(Cc2ccccc2)CC1` (stereo not shown) [10-6, N-[2-(1-benzylpiperidin-4-yl)ethyl]-3-methyl-1-[4-(trifluoromethoxy)phenyl]piperidine-4-carboxamide], the Ki at human M1 receptor is 0.1 to 1 µM; at human M2 receptor, 0.1 to 1 µM; on human M3 receptor, over 1 µM; at human M4 receptor it was under 0.01 µM; on human M5 receptor, over 1 µM.

As for `O=C(NCCC1CCN(Cc2ccccc2)CC1)C1CCN(c2cc(F)c(F)c(F)c2)CC1` [10-7, N-[2-(1-benzylpiperidin-4-yl)ethyl]-1-(3,4,5-trifluorophenyl)piperidine-4-carboxamide], the Ki at human M1 receptor was over 1 µM; on human M2 receptor, 0.1 to 1 µM; at human M3 receptor, over 1 µM; at human M4 receptor, under 0.01 µM; at human M5 receptor, over 1 µM.

With `O=C(NCCC1CCN(Cc2ccccc2)CC1)C1CCN(c2ccc(OC(F)(F)F)c(F)c2)CC1` [10-8, N-[2-(1-benzylpiperidin-4-yl)ethyl]-1-[3-fluoro-4-(trifluoromethoxy)phenyl]piperidine-4-carboxamide], the Ki on human M1 receptor was over 1 µM; at human M2 receptor it was 0.1 to 1 µM; at human M3 receptor, over 1 µM; on human M4 receptor, under 0.01 µM; on human M5 receptor, over 1 µM.

On to `O=C(NCCC1CCN(Cc2ccccc2)CC1)C1CCN(c2ccc(C(F)(F)F)cc2)CC1` [10-9, N-[2-(1-benzylpiperidin-4-yl)ethyl]-1-[4-(trifluoromethyl)phenyl]piperidine-4-carboxamide], for which the Ki on human M1 receptor is over 1 µM; at human M2 receptor, 0.1 to 1 µM; on human M3 receptor it was over 1 µM; on human M4 receptor, under 0.01 µM; on human M5 receptor, over 1 µM.

On to `COc1cc(N2CCC(C(=O)NCCC3CCN(Cc4ccccc4)CC3)CC2)ccc1OC(F)(F)F` [10-10, N-[2-(1-benzylpiperidin-4-yl)ethyl]-1-[3-methoxy-4-(trifluoromethoxy)phenyl]piperidine-4-carboxamide], for which the inhibitory constant (Ki) at human M1 receptor is 0.1 to 1 µM; at human M2 receptor, 0.1 to 1 µM; on human M3 receptor, over 1 µM; at human M4 receptor it was under 0.01 µM; on human M5 receptor, over 1 µM.

Turning to `O=C(NCCC1CCN(Cc2ccccc2)CC1)C1CCN(c2ccc(F)c(OC(F)(F)F)c2)CC1` [10-11, N-[2-(1-benzylpiperidin-4-yl)ethyl]-1-[4-fluoro-3-(trifluoromethoxy)phenyl]piperidine-4-carboxamide], the Ki at human M1 receptor is 0.1 to 1 µM; at human M2 receptor, 0.1 to 1 µM; at human M3 receptor, over 1 µM; at human M4 receptor, under 0.01 µM; on human M5 receptor, over 1 µM.

`C[C@@H]1CN(c2ccc(OC(F)(F)F)cc2F)CCN1C(=O)NCCC1CCN(Cc2ccccc2)CC1` [10-12, (2R)-N-[2-(1-benzylpiperidin-4-yl)ethyl]-4-[2-fluoro-4-(trifluoromethoxy)phenyl]-2-methylpiperazine-1-carboxamide]: the Ki is 0.1 to 1 µM at human M1 receptor; 0.01 to 0.1 µM on human M2 receptor; 0.1 to 1 µM on human M3 receptor; under 0.01 µM at human M4 receptor; 0.1 to 1 µM at human M5 receptor.

For `N#Cc1ccc(N2CCC(C(=O)NCCC3CCN(Cc4ccccc4)CC3)CC2)cc1OC(F)(F)F` [10-13, N-[2-(1-benzylpiperidin-4-yl)ethyl]-1-[4-cyano-3-(trifluoromethoxy)phenyl]piperidine-4-carboxamide], the Ki on human M1 receptor is 0.1 to 1 µM; at human M2 receptor it was 0.1 to 1 µM; at human M3 receptor, over 1 µM; at human M4 receptor, under 0.01 µM; on human M5 receptor, over 1 µM.

Consider `N#Cc1cc(F)cc(N2CCC(C(=O)NCCC3CCN(Cc4ccccc4)CC3)CC2)c1` [10-14, N-[2-(1-benzylpiperidin-4-yl)ethyl]-1-(3-cyano-5-fluorophenyl)piperidine-4-carboxamide], for which the inhibitory constant (Ki) on human M1 receptor was over 1 µM; on human M2 receptor, 0.1 to 1 µM; on human M3 receptor, over 1 µM; on human M4 receptor, under 0.01 µM; at human M5 receptor, over 1 µM.

In the case of `CC1CN(c2cccc(OC(F)(F)F)c2)CCC1C(=O)NCCC1CCN(Cc2ccccc2)CC1` (stereo not shown) [10-18, N-[2-(1-benzylpiperidin-4-yl)ethyl]-3-methyl-1-[3-(trifluoromethoxy)phenyl]piperidine-4-carboxamide], the Ki at human M1 receptor is over 1 µM; at human M2 receptor, 0.1 to 1 µM; at human M3 receptor, over 1 µM; on human M4 receptor, under 0.01 µM; at human M5 receptor it was over 1 µM.

In the case of `O=C(NCCC1CCN(Cc2ccccc2)CC1)C1CCN(c2cccc(OC(F)(F)F)c2)CC1` [10-19, N-[2-(1-benzylpiperidin-4-yl)ethyl]-1-[3-(trifluoromethoxy)phenyl]piperidine-4-carboxamide], the inhibition constant Ki is 0.1 to 1 µM at human M1 receptor; 0.1 to 1 µM on human M2 receptor; over 1 µM on human M3 receptor; under 0.01 µM on human M4 receptor; over 1 µM at human M5 receptor.

Take `N#Cc1cc(N2CCC(C(=O)NCCC3(O)CCN(Cc4ccccc4)CC3)CC2)ccc1OC(F)(F)F` [10-20, N-[2-(1-benzyl-4-hydroxypiperidin-4-yl)ethyl]-1-[3-cyano-4-(trifluoromethoxy)phenyl]piperidine-4-carboxamide]: the inhibitory constant (Ki) at human M1 receptor is over 1 µM; on human M2 receptor it was 0.1 to 1 µM; at human M3 receptor, over 1 µM; on human M4 receptor it was under 0.01 µM; on human M5 receptor, over 1 µM.
